These results are taken from PMC3017127, “Survey of Tyrosine Kinase Signaling Reveals ROS Kinase Fusions in Human Cholangiocarcinoma” (PLoS ONE, 2011).

One experiment concerns T1, FIG-ROS(L).
T1 construct: gene ROS1; C-terminal Myc tag; MSCV-Neo in murine BaF3 cells; with Golgi-associated PDZ and coiled-coil motif-containing protein
In words: BaF3 cell viability (CellTiter […] AQueous One, MTS), IL-3-independent growth. It is filed as cell-based, Mus musculus. The conditions noted are these: 72 h; growth read-out of cells depending on the fusion kinase; ROS phosphorylation read by Western blot in a separate 3 h test.

The subject of another experiment is T2, NPM-ALK.
T2 construct: endogenous NPM-ALK fusion in Karpas-299 cells; with Nucleophosmin
In words: Karpas-299 cell viability (CellTiter […] AQueous One, MTS). The format is cell-based. The conditions noted are these: 72 h; growth read-out of human lymphoma cells with endogenous fusion; control line.

The subject of a further experiment is T3, FIG-ROS(S).
T3 construct: gene ROS1; C-terminal Myc tag; MSCV-Neo in murine BaF3 cells; with Golgi-associated PDZ and coiled-coil motif-containing protein
In words: BaF3 cell viability (CellTiter […] AQueous One, MTS), IL-3-independent growth. The format is cell-based, Mus musculus. The conditions noted are these: 72 h; growth read-out of cells depending on the fusion kinase; ROS phosphorylation read by Western blot in a separate 3 h test.

Each structure is given as a SMILES string.

As for `COc1cc(N2CCC(N3CCN(C)CC3)CC2)ccc1Nc1ncc(Cl)c(Nc2ccccc2S(=O)(=O)C(C)C)n1` [TAE684], the IC50 was determined as 1.8 nM with FIG-ROS(L), […] in the experiment on NPM-ALK and 10 nM with FIG-ROS(S).
